The values below come from ChEMBL document CHEMBL1126359, “Synthesis and pharmacological activity of rationally designed inhibitors of the leukotriene A4 hydrolase enzyme” (Bioorg Med Chem Lett, 1992).

One assay deals with HL-60. Briefly: Inhibitory activity against calcium ionophore induced Leukotriene B4 biosynthesis by the promyelocytic leukemia cell line HL-60 at concentrations of 10e-6 M; A - good inhibitory activity. Format: functional, cell-based. The conditions noted are these: Homo sapiens.
The target in assay [1] is T1, Leukotriene A-4 hydrolase (Homo sapiens) (UniProt P09960).
T1 sequence (whole entry): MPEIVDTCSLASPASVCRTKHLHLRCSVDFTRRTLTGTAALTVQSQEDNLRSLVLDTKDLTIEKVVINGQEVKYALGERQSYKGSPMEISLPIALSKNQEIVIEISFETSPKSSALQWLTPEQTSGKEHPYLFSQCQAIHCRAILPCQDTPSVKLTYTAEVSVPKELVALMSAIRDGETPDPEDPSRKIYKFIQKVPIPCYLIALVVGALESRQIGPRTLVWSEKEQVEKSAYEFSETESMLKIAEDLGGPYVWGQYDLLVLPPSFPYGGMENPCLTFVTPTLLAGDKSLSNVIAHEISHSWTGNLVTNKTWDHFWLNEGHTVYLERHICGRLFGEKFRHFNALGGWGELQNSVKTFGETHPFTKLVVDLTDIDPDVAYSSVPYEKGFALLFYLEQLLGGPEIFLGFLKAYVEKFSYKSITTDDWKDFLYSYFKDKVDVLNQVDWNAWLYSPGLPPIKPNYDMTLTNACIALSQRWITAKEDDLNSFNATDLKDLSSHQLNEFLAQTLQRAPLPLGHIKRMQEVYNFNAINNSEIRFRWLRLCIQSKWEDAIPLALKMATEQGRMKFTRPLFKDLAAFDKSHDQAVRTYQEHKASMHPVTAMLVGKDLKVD
The assay is described as follows: Inhibition of Leukotriene B4 by inhibiting the conversion of Leukotriene A4 by a purified Leukotriene A4 hydrolase; IE - ineffective.

As to `CCCCCCCCCC/C=C/C1=C[C@@H]2CC[C@@]1(CCCC(=O)O)O2`, the Activity result with HL-60 is “A”; in assay [1], “Ineffective”.
In the same order, the values of `CCCCCCCC/C=C\C=C\C1=C[C@@H]2CC[C@@]1(CCCC(=O)O)O2` are “A” and “Ineffective”.
